Assay results from patent publication US11142554B2 (MASSACHUSETTS INSTITUTE OF TECHNOLOGY, priority 2015, dated 2021).
Residues, ends and D or L forms follow the SMILES beside them.

Assays:
KSBcl-2 = assay: receptor | KSBcl-2
Bfl-1 = Bfl-1 (Homo sapiens, UniProt Q16548); assay: receptor | Bfl-1
Bcl-2 = Bcl-2 (Homo sapiens, UniProt P10415); assay: receptor | Bcl-2
Bcl-xL = Bcl-xL (Homo sapiens, UniProt Q07817); assay: receptor | Bcl-xL
Bcl-w = Bcl-w (Homo sapiens, UniProt Q92843); assay: receptor | Bcl-w
Sequence of Bcl-w (Q92843 2-193 limits assumed): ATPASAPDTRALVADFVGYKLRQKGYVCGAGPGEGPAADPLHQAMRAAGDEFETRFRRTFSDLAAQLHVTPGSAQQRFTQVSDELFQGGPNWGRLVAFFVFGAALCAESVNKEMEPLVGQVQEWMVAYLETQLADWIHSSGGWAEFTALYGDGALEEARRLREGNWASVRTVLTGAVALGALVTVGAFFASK

Sequence of Bfl-1 (Q16548 whole entry, looked up): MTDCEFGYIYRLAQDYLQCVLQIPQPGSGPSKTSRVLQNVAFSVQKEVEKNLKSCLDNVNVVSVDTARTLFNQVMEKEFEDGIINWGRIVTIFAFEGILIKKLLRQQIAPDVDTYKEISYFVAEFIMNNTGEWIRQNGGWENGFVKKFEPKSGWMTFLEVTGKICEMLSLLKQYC
Sequence of Bcl-xL (Q07817 whole entry, looked up): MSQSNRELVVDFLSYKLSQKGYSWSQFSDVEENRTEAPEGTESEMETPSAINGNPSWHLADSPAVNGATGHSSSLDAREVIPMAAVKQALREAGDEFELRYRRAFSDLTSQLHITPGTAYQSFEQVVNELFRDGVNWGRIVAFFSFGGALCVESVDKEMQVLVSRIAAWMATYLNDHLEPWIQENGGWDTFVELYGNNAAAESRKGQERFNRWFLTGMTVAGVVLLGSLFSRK
Sequence of Bcl-2 (P10415 whole entry, looked up): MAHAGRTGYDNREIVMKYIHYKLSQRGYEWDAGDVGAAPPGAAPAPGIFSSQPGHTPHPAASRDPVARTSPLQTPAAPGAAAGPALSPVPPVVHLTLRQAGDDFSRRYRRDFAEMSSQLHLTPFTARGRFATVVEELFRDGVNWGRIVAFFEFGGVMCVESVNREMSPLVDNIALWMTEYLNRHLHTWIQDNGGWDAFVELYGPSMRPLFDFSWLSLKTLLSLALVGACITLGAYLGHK

CC[C@H](C)[C@H](NC(=O)[C@H](CCC(=O)O)NC(=O)[C@H](CC(=O)O)NC(=O)CNC(=O)[C@H](CC(C)C)NC(=O)[C@H](CCCNC(=N)N)NC(=O)[C@H](CCCNC(=N)N)NC(=O)[C@H](CC(C)C)NC(=O)CNC(=O)[C@H](CCC(N)=O)NC(=O)CNC(=O)[C@H](CCSC)NC(=O)[C@H](Cc1c[nH]c2ccccc12)NC(=O)[C@@H](NC(=O)[C@H](CCC(=O)O)NC(=O)[C@@H]1CCCN1C(=O)[C@@H](N)CCCNC(=N)N)[C@@H](C)CC)C(=O)N[C@@H](CC(N)=O)C(=O)N[C@@H](C)C(=O)N[C@@H](Cc1ccc(O)cc1)C(=O)N[C@@H](Cc1ccc(O)cc1)C(=O)N[C@@H](C)C(=O)N[C@@H](CCCNC(=N)N)C(N)=O [A12] (H-RPEIWMGQGLRRLGDEINAYYAR-NH2; N-terminus and C-terminus assumed) showed a Kd (KSBcl-2) of 4 ± 2.6 nM.

CC[C@H](C)[C@H](NC(=O)[C@H](CCC(=O)O)NC(=O)[C@H](CC(=O)O)NC(=O)CNC(=O)[C@H](CC(C)C)NC(=O)[C@H](CCCNC(=N)N)NC(=O)[C@H](CCC(N)=O)NC(=O)[C@H](CC(C)C)NC(=O)[C@H](CO)NC(=O)[C@H](CCC(N)=O)NC(=O)CNC(=O)[C@H](CC(C)C)NC(=O)[C@H](Cc1c[nH]c2ccccc12)NC(=O)[C@@H](NC(=O)[C@H](CCC(=O)O)NC(=O)[C@@H]1CCCN1C(=O)[C@@H](N)CCCNC(=N)N)[C@@H](C)CC)C(=O)N[C@@H](CC(N)=O)C(=O)N[C@@H](C)C(=O)N[C@@H](Cc1ccc(O)cc1)C(=O)N[C@@H](Cc1ccc(O)cc1)C(=O)N[C@@H](C)C(=O)N[C@@H](CCCNC(=N)N)C(N)=O [B3] (H-RPEIWLGQSLQRLGDEINAYYAR-NH2; N-terminus and C-terminus assumed) was tested, and the Kd (KSBcl-2) was 1.43 ± 1.39 nM.

CC[C@H](C)[C@H](NC(=O)[C@H](CCCNC(=N)N)NC(=O)[C@H](CCCNC(=N)N)NC(=O)[C@H](CC(C)C)NC(=O)[C@H](CCC(=O)O)NC(=O)[C@H](CCC(N)=O)NC(=O)[C@@H](NC(=O)[C@@H](NC(=O)[C@H](Cc1c[nH]c2ccccc12)NC(=O)[C@@H](NC(=O)[C@H](CCC(=O)O)NC(=O)[C@@H]1CCCN1C(=O)[C@@H](N)CCCNC(=N)N)[C@@H](C)CC)[C@@H](C)CC)[C@@H](C)O)C(=O)NCC(=O)N[C@@H](CC(=O)O)C(=O)N[C@@H](CCC(=O)O)C(=O)N[C@@H](Cc1ccccc1)C(=O)N[C@@H](CC(N)=O)C(=O)N[C@@H](C)C(=O)N[C@@H](Cc1ccc(O)cc1)C(=O)N[C@@H](Cc1ccc(O)cc1)C(=O)N[C@@H](C)C(=O)N[C@@H](CCCNC(=N)N)C(N)=O [Bim_A2eT] was tested, and the Kd (Bfl-1) was 31 ± 6.8 nM, the Kd (Bcl-2) was 43 ± 12 nM and the Kd (Bcl-xL) was 17 ± 4.8 nM. For the same compound, the Kd (Bcl-w) was 39 ± 9.4 nM.

Compound CC[C@H](C)[C@H](NC(=O)[C@H](CCCNC(=N)N)NC(=O)[C@H](CCCNC(=N)N)NC(=O)[C@H](CC(C)C)NC(=O)[C@H](CCC(=O)O)NC(=O)[C@H](CCC(N)=O)NC(=O)[C@@H](NC(=O)[C@H](CCSC)NC(=O)[C@H](Cc1c[nH]c2ccccc12)NC(=O)[C@@H](NC(=O)[C@H](CCC(=O)O)NC(=O)[C@@H]1CCCN1C(=O)[C@@H](N)CCCNC(=N)N)[C@@H](C)CC)[C@@H](C)O)C(=O)NCC(=O)N[C@@H](CC(=O)O)C(=O)N[C@@H](CCC(=O)O)C(=O)N[C@@H](Cc1ccccc1)C(=O)N[C@@H](CC(N)=O)C(=O)N[C@@H](C)C(=O)N[C@@H](Cc1ccc(O)cc1)C(=O)N[C@@H](Cc1ccc(O)cc1)C(=O)N[C@@H](C)C(=O)N[C@@H](CCCNC(=N)N)C(N)=O [Bim_A2eT_I2dM] has a Kd (Bfl-1) of 150 ± 69 nM, a Kd (Bcl-2) of 210 ± 71 nM and a Kd (Bcl-xL) of 83 ± 53 nM. It also gave a Kd (Bcl-w) of 260 ± 52 nM.

CC[C@H](C)[C@H](NC(=O)[C@H](CCC(=O)O)NC(=O)[C@@H]1CCCN1C(=O)[C@@H](N)CCCNC(=N)N)C(=O)N[C@@H](Cc1c[nH]c2ccccc12)C(=O)N[C@H](C(=O)N[C@H](C(=O)N[C@@H](CCC(N)=O)C(=O)N[C@@H](CCC(=O)O)C(=O)N[C@@H](CC(C)C)C(=O)N[C@@H](CCCNC(=N)N)C(=O)N[C@@H](CCCNC(=N)N)C(=O)N[C@@H](CC(C)C)C(=O)NCC(=O)N[C@@H](CC(=O)O)C(=O)N[C@@H](CCC(=O)O)C(=O)N[C@@H](Cc1ccccc1)C(=O)N[C@@H](CC(N)=O)C(=O)N[C@@H](C)C(=O)N[C@@H](Cc1ccc(O)cc1)C(=O)N[C@@H](Cc1ccc(O)cc1)C(=O)N[C@@H](C)C(=O)N[C@@H](CCCNC(=N)N)C(N)=O)[C@@H](C)O)[C@@H](C)CC [Bim_A2eT_I3dL] was tested, and the Kd (Bfl-1) was 120 ± 27 nM, the Kd (Bcl-2) was 37 ± 14 nM and the Kd (Bcl-xL) was 7.6 ± 3.8 nM. The Kd (Bcl-w) was 12 ± 2.6 nM.

CC[C@H](C)[C@H](NC(=O)[C@H](CCC(=O)O)NC(=O)[C@H](CC(=O)O)NC(=O)CNC(=O)[C@H](CC(C)C)NC(=O)[C@H](CCCNC(=N)N)NC(=O)[C@H](CCC(N)=O)NC(=O)[C@H](CC(C)C)NC(=O)[C@H](Cc1c[nH]cn1)NC(=O)[C@H](CCC(N)=O)NC(=O)[C@@H](NC(=O)[C@H](CC(C)C)NC(=O)[C@H](Cc1c[nH]c2ccccc12)NC(=O)[C@@H](NC(=O)[C@H](CCC(=O)O)NC(=O)[C@@H]1CCCN1C(=O)[C@@H](N)CCCNC(=N)N)[C@@H](C)CC)[C@@H](C)O)C(=O)N[C@@H](CC(N)=O)C(=O)N[C@@H](C)C(=O)N[C@@H](Cc1ccc(O)cc1)C(=O)N[C@@H](Cc1ccc(O)cc1)C(=O)N[C@@H](C)C(=O)N[C@@H](CCCNC(=N)N)C(N)=O [MS3] gave a Kd (Bfl-1) of 790 ± 140 nM and a Kd (Bcl-w) of 340 ± 69 nM.

RPEIWLTQSLQRLGDEINAYYAR [MS2] gave a Kd (KSBcl-2) of under 1 nM.

RPEIWMTQGLRRLGDEINAYYAR [MS1] gave a Kd (KSBcl-2) of 2.9 ± 0.68 nM.
